What was measured:
[1] = molecular target: mutant Na+ channel (F1760A) (Homo sapiens, UniProt Q14524, F1760A); assay: Whole-cell Na current recording, F1760A mutant Na+ channel; type: cell-based; conditions: flecainide 10 μM, IsoK 10 μM
Protocol: A. Use-dependent flecainide block was examined using the protocol shown. A train of 500 depolarizing pulses with 10 msec duration at −20 mV were applied at a frequency of 5 Hz. Currents are plotted from every twentieth pulse. Upper panel represents the current in the presence of flecainide (1 μM). Lower panel represents INa in the presence of flecainide and IsoK (10 μM). B. Depolarization-dependent effects are summarized as a function of the pulse number. All current amplitudes are normalized to that of the first depolarization and every tenth pulse is plotted. […] For these experiments flecainide concentration was increased to 10 μM.
Where indicated, cells were co-transfected with an equimolar ratio of Na channel human β1 subunit. cDNAs were transiently transfected into HEK-293 cells using lipofectamine (GIBCO-BRL, Gaithersburg, Md.), and were cultured in MEM medium supplemented with 10% fetal bovine serum and 1% pen-strep in a 5% CO2 incubator at 37° C. for 1 to 4 days.
The effects of IsoK were tested using the same protocol as FIG. 39A. In this experiment, the concentration of flecainide was increased to 10 μM to exaggerate use-dependence.

[2] = test system: patients convalescing from myocardial infarction; conditions: in vivo; cited from earlier work
[3] = molecular target: human cardiac Na channel (hH1, or SCN5A) (Homo sapiens, UniProt Q14524); assay: Whole-cell Na current recording, wild-type hH1 expressed in HEK-293 cells; conditions: for P500/P1 (use-dependence): 5 Hz, 500 pulses; for V1/2 voltage-dependence of inactivation (availability): HEK-293, t-BHP 1 mM, Iso-K 10 μM
human cardiac Na channel (hH1, or SCN5A), sequence (Q14524 whole entry): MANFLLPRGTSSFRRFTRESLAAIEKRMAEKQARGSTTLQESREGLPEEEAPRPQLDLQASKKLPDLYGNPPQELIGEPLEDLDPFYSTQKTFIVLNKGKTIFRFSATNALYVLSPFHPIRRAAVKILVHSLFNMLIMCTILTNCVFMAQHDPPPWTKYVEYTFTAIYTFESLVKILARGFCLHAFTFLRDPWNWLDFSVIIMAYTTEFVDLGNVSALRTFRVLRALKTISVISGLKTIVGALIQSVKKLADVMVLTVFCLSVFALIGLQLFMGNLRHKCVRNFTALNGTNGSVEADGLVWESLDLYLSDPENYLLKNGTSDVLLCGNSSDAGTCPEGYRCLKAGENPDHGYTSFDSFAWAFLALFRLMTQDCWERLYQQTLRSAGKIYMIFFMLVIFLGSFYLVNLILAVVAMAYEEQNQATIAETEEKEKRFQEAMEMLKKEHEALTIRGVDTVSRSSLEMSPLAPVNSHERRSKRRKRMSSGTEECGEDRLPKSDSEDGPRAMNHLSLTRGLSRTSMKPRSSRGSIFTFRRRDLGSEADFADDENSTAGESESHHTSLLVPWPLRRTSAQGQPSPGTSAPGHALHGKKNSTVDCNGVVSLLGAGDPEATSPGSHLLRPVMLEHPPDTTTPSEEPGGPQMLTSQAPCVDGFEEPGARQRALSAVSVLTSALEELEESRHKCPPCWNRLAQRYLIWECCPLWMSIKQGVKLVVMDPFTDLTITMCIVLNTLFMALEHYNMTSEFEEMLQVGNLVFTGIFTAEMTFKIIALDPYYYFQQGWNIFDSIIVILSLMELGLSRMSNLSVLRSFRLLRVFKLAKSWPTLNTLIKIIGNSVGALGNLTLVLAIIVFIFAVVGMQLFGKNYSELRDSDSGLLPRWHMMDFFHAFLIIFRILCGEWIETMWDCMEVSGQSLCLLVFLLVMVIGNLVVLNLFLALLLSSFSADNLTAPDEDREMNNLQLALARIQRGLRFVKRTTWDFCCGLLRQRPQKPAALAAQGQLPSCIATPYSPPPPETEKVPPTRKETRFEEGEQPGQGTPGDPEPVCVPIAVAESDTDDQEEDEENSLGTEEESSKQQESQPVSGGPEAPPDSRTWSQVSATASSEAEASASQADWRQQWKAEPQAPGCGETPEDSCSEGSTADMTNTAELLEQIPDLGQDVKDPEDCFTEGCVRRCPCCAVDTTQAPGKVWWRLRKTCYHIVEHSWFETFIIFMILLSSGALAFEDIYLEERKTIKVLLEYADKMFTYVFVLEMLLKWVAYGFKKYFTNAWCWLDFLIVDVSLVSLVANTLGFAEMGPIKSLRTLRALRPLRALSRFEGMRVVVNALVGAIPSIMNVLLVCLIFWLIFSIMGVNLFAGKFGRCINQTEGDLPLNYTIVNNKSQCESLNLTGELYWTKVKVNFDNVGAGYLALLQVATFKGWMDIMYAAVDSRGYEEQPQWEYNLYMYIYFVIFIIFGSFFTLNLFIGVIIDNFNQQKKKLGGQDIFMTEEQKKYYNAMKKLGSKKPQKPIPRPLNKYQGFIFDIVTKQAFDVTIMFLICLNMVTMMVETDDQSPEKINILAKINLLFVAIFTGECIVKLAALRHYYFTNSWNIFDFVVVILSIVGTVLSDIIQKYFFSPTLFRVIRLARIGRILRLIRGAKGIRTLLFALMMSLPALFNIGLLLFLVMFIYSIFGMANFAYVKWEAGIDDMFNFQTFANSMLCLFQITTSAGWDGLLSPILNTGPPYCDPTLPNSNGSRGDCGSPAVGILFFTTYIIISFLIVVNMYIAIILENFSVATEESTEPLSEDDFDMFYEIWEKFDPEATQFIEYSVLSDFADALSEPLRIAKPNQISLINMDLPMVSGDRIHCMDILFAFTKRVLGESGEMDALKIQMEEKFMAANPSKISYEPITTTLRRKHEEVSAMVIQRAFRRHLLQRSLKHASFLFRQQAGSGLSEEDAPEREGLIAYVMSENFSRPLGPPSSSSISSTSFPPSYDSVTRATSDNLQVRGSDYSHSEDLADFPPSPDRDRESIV

[4] = test system: HEK-293 cells; assay: Lipid peroxidation products in HEK 293 cells treated with t-BHP; type: cell-based; conditions: exposure of HEK cells
Protocol: Synthesis and analysis of reactive products of lipid peroxidation: E2-isoketal was synthesized as previously described. The present inventors used mass spectrometry to analyze F2-isoprostanes formed following treatment of HEK 293 cells with t-BHP. For this assay, HEK-293 cells (1×10^6) were treated for 30 minutes at room temperature with buffer containing 100 μM t-BHP, or 100 μM t-BHP and 200 μM FeCl2. Total (free and esterified) F2-isoprostanes (F2-IsoPs) esterified in cellular lipids were then quantified by a highly accurate GC/NICI/MS assay as described previously.

[5] = molecular target: native Na+ channels in HL-1 cells (Mus musculus, UniProt Q9JJV9); conditions: for Na channel availability: HL-1, preincubation; for V1/2 availability of native Na+ channels: HL-1, t-BHP 2 mM, Iso-K 10 μM
native Na+ channels in HL-1 cells, sequence (Q9JJV9 whole entry): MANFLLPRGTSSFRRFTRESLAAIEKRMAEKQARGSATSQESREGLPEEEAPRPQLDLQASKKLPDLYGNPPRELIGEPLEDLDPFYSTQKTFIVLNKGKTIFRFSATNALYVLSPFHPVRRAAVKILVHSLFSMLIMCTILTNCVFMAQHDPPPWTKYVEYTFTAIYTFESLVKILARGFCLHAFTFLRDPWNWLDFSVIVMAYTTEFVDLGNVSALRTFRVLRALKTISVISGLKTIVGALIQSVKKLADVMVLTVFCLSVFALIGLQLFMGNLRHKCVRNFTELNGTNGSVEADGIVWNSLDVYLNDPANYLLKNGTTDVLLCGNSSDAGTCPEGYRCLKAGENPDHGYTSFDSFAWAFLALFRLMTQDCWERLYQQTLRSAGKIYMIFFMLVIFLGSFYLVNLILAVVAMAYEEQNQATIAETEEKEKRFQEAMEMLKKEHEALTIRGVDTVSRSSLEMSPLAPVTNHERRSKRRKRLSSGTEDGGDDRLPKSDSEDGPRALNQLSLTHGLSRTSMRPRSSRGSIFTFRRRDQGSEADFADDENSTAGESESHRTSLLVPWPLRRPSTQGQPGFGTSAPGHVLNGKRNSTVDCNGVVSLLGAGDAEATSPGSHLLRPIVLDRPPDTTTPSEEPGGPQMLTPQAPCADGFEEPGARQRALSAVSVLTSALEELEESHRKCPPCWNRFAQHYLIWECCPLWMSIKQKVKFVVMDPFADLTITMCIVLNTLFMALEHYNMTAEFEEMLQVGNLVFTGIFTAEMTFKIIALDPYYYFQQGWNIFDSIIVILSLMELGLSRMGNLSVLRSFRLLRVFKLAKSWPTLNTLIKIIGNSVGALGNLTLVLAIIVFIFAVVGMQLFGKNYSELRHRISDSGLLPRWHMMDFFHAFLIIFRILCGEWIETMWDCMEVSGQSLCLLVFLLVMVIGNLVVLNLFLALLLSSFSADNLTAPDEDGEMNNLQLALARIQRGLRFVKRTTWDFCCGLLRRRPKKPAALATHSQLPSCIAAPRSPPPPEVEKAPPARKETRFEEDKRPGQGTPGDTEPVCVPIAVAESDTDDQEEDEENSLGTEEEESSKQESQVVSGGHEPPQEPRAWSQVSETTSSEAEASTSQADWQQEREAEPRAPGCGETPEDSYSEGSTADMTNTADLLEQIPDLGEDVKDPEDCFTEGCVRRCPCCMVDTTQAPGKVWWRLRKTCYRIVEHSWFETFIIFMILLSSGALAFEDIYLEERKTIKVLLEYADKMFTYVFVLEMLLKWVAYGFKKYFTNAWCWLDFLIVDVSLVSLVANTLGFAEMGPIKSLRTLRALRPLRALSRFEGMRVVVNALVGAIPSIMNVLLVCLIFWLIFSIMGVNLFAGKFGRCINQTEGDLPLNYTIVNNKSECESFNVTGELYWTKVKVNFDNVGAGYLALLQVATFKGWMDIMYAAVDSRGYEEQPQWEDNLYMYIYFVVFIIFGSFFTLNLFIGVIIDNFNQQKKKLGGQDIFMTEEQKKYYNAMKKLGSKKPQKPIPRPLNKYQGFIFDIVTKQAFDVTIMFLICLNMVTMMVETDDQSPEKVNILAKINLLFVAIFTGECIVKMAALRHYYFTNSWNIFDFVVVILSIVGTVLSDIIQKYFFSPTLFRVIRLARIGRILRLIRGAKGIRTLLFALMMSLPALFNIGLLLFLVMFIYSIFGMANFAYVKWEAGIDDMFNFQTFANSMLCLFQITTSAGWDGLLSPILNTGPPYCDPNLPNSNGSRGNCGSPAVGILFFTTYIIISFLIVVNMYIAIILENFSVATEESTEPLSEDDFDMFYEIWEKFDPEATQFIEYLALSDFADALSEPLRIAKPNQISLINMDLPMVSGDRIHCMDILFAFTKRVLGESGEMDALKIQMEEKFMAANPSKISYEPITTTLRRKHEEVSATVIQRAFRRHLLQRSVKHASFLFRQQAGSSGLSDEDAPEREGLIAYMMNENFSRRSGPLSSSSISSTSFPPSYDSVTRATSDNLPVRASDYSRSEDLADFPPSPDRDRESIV

[6] = test system: F2-IsoPs esterified in the kidney; assay: Galactosamine treated rats (hepatorenal syndrome model), F2-IsoPs esterified in the kidney; type: in vivo, rat; conditions: 1 g/L drinking water
Description: Another antioxidant of the present invention is lipoic acid. […] Dihydrolipoic acid is a dithiol. As mentioned previously, thiols reduce the endoperoxide intermediates in the IsoP pathway in vivo to F2-IsoPs. Reducing the endoperoxides concomitantly therefore reduces the formation of endoperoxide rearrangement products, one of which is the IsoKs (FIG. 28). Therefore, mechanistically lipoic acid is an antioxidant to test in animal models of AD. It is also an antioxidant to test because it is available over the counter for human use.

[7] = test system: aged SAMP mice; conditions: mouse, in vivo; cited from earlier work
[8] = molecular target: bovine serum albumin (Bos taurus, UniProt P02769); assay: Disappearance of free IsoK and HNE during incubation with bovine serum albumin (rate of adduction); type: biochemical
bovine serum albumin, sequence (P02769 25-607): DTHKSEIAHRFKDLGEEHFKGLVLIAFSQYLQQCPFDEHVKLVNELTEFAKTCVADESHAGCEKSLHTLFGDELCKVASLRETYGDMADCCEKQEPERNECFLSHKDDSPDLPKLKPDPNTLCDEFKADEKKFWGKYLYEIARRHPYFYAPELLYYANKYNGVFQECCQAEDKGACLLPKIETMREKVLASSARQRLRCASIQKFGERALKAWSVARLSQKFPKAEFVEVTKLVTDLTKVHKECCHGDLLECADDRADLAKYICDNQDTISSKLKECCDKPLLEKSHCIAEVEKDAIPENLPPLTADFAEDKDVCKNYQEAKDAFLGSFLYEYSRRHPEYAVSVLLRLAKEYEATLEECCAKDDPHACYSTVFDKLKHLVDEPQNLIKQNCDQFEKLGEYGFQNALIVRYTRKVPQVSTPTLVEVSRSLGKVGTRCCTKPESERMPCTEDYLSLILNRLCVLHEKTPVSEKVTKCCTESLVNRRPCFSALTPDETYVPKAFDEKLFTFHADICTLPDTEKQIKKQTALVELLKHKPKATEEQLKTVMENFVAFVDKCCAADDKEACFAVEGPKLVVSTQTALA
Protocol: Oxidation of AA in vitro produces both F2-IsoPs and IsoKs in nearly equivalent amounts. However, comparison of the formation of F2-IsoPs and IsoKs in vivo is more complex, because IsoKs rapidly adduct to lysyl residues on proteins. […] In striking contrast, approximately 50% of the HNE still remained in free form after 80 minutes.

[9] = molecular target: ovalbumin (OVA) (Gallus gallus, UniProt P01012); assay: Protein cross-linking after incubation with ovalbumin; type: biochemical; conditions: 10 molar equivalents, about 4 hours
ovalbumin (OVA), sequence (P01012 whole entry, species assumed): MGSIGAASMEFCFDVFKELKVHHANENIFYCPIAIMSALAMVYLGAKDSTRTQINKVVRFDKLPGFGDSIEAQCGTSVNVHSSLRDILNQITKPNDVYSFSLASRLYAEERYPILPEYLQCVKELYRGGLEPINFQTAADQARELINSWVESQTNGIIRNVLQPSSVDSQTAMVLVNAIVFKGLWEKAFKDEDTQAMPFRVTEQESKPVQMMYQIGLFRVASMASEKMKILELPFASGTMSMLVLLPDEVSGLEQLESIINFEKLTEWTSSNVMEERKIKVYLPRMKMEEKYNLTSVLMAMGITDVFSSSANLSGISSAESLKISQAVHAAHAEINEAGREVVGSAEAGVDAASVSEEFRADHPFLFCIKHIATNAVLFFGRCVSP
Description: The above findings explained why repeated attempts in the past to detect free IsoKs during oxidation of biological systems in vitro, e.g. microsomes, and in animal models of oxidant injury in vivo were unsuccessful because they are rapidly sequestered as protein adducts. Therefore, the present inventors undertook to determine the identity of IsoK lysyl adducts as a basis for development of methodology to detect IsoK and NeuroK adducts in biological tissues in their adducted form. […] Reversible Schiff base adducts were also identified. Schiff base adducts are formed rapidly and then decline over time, whereas lactam adducts accumulate slowly over time. Lysyl protein adducts of IsoKs and NeuroKs are analyzed by LC/MS/MS following enzymatic digestion of proteins to individual amino acids. Enzymatic digestion of proteins is necessary because the adducts degrade during acid hydrolysis. However, this analysis is further complicated by the proclivity of IsoKs and NKs to induce protein crosslinking, which is resistant to hydrolysis. […] This is a dramatic example of the differential effects of IsoKs/NKs and HNE on protein adduction and cross-linking.

[10] = test system: proteasome chymotrypsin-like activity; assay: Inhibition of chymotrypsin-like activity in RAW cell lysates; type: biochemical
Description: When the mechanism of inhibition id analyzed, both competitive and non-competitive mechanism are found. Therefore, in addition to adducted proteins inhibiting the proteasome, IsoKs may cause inhibition by directly adducting to the proteasome itself, or to proteins that regulate proteasome activity.

[11] = test system: proteasome; assay: Proteasome inhibition in P19 neuroglial cultures; type: cell-based
Description: (§1) Because inhibitors of proteasome function induce neuronal death, the present inventors examined the toxicity of IsoKs.

[12] = test system: P19 neuroglial cultures; assay: Cell death in P19 neuroglial cultures; type: cell-based; conditions: read-out: LC50 cell death
Description: as §1

[13] = test system: recombinant human tau; assay: PHF-tau formation, dot blot with Alz50; type: biochemical; conditions: equimolar IsoK and tau, within 2 hrs
Protocol: Synthetic IsoK to equimolar amounts of recombinant human tau was added and the amount of PHF-tau formation by dot blot analysis was determined with the monoclonal antibody Alz50 (a gift from Dr. Peter Davis). Alz50 recognizes an epitope unique to PHF-tau. […] (FIG. 33).

[14] = alone, flecainide 1 μM, IsoK 10 μM

In the case of `O=C(NCC1CCCCN1)c1cc(OCC(F)(F)F)ccc1OCC(F)(F)F` (centres unmarked) [flecainide], the “P500/P1 (use-dependent block)” value [1] is given as 0.92±0.03, the mortality increase [2] is given as “three-fold” and the “A1 (amplitude of the fast component, recovery from inactivation)” value [3] is given as 0.80 ± 0.04. The “A2 (amplitude of the slow component, recovery from inactivation)” value [3] was 0.20 ± 0.04, the “P500/P1 (use-dependence)” value [3, 14] was 0.87±0.04 and the “V1/2 voltage-dependence of inactivation (availability)” value ([3]; flecainide 1 μM) was −86.4±2.1 mV. For the same molecule, the “P500/P1 (use-dependent block)” value ([3]; WT, flecainide 10 μM, IsoK 10 μM) was 0.38±0.05 and the “V1/2 voltage-dependence of inactivation” value ([3]; flecainide 1 μM in the presence of IsoK 10 μM) was −99.3±2.3 mV.
For `CC(C)(C)OO` [t-BHP, tert-butyl hydroperoxide], the “formation of lipid peroxidation products” value [4] was “abundant quantities of F2-IsoPs and IsoK”, the “Na channel availability” value [5] was “reduced Na channel availability” and the “V1/2 availability of native Na+ channels” value [5] was −82.8±1.7 mV.
In the case of `O=C(O)CCCC[C@@H]1CCSS1` (racemic) [lipoic acid], the “increase in F2-IsoPs esterified in the kidney” value [6] is listed as “completely suppressed to below control levels” and the cognitive impairment [7] is listed as “effective in improving cognitive impairment”.
For E2-isoketal, the adduction to albumin [8] was “essentially complete within a few minutes”, the cross-linking of ovalbumin [9] was “extensive cross-linked high molecular weight oligimers” and the IC50 [10] was 2100 nM. For the same molecule, the IC50 [11] was 330 nM, the CC50 [12] was 670 nM and the “PHF-tau formation (Alz50)” value [13] was “strong Alz50 immunoreactivity”. For the same molecule, the “Na channel availability” value [5] was “reduced Na channel availability”, the “V1/2 availability of native Na+ channels” value [5] was −82.0±1.7 mV and the “A1 (amplitude of the fast component, recovery from inactivation)” value [3] was 0.79 ± 0.04. The “A2 (amplitude of the slow component, recovery from inactivation)” value [3] was 0.21 ± 0.04, the INa decay [3] was “speeded the rate Of INa decay” and the “V1/2 voltage-dependence of activation” value [3] was −41.6±1.5 mV. The “P500/P1 (use-dependence)” value [3, 14] was 0.89±0.02, the “P500/P1 (use-dependence)” value ([3]; in the presence of flecainide 1 μM) was 0.66±0.03 and the “V1/2 voltage-dependence of inactivation (availability)” value ([3]; flecainide 1 μM) was −96.4±1.1 mV. The “activation of sodium channels” value ([3]; over a range of membrane potentials) was “no effect on the activation”.

Source: patent publication US8822542B2, “Isoketal scavengers and mitigation of disorders involving oxidative injury” (Vanderbilt University, priority 2005, dated 2014)
